This is an account of results in ChEMBL document CHEMBL2203097, “7-Phenyl-pyrido[2,3-d]pyrimidine-2,4-diamines: novel and highly selective protein tyrosine phosphatase 1B inhibitors” (Bioorg Med Chem Lett, 2012).

Calls of active or inactive are those of the source. The calls are words filed in the database; no cut-off is given here. A value given as a limit tells only on which side of the number the result lay.

Series [1] addresses T1, Tyrosine-protein phosphatase non-receptor type 1 (Homo sapiens, UniProt P18031).
T1 sequence (P18031 whole entry): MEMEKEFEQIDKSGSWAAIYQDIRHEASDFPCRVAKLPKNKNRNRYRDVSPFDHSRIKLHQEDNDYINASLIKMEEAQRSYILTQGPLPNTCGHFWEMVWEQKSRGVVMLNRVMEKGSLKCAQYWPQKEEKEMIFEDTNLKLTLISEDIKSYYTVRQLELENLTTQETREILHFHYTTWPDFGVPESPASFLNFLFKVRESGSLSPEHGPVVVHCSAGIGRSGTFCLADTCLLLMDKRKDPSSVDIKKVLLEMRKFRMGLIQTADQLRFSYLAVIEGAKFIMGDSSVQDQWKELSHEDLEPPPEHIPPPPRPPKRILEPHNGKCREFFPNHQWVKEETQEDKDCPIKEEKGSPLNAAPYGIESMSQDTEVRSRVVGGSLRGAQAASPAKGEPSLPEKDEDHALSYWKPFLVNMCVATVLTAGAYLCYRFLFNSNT
In words: Inhibition of human PTP1B (1 to 321 amino acid residues) expressed in Escherichia coli using TRDI(pY)E as substrate incubated for 15 mins prior to substrate addition measured after 20 mins by malachite green staining-based colorimetric assay.

A short description of series [2]: Clearance in C57 mouse at 5 mg/kg, iv. The format is ADME, organism-based. More on the design: dose 5 mg/kg, route intravenous. The note with it: in vivo.
Series [3] can be described thus: AUC in C57 mouse at 50 mg/kg, po. Format: ADME, organism-based. Also noted: dose 50 mg/kg, route oral. The note with it: plasma.
The species entered for series [4] is Homo sapiens. The series is described as follows: Selectivity ratio of IC50 for YOP to IC50 for human PTP1B (1 to 321 amino acid residues).
Series [5] in a line: AUC in C57 mouse at 5 mg/kg, iv. Format: ADME, organism-based. More on the design: dose 5 mg/kg, route intravenous. The note with it: plasma.
For series [6], the species on record is Homo sapiens. The series is described as follows: Selectivity ratio of IC50 for PTPepsilon to IC50 for human PTP1B (1 to 321 amino acid residues).
Series [7] addresses T2, Tyrosine-protein phosphatase non-receptor type 1 (Homo sapiens) (UniProt P18031).
T2 sequence (whole entry): T1 sequence (P18031 whole entry)
The note with it: 0.29 to 3.3 uM.
Description: Uncompetitive inhibition of human PTP1B (1 to 321 amino acid residues) expressed in Escherichia coli using DiFMUP as substrate at 0.29 to 3.3 uM by Lineweaver-Burke plot analysis

Series [8] is filed under the species Homo sapiens. The series is described as follows: Selectivity ratio of IC50 for SHP2 to IC50 for human PTP1B (1 to 321 amino acid residues).
Series [9] is filed under the species Homo sapiens. The series is described as follows: Selectivity ratio of IC50 for PTPbeta to IC50 for human PTP1B (1 to 321 amino acid residues).
The species entered for series [10] is Homo sapiens. The series is described as follows: Selectivity ratio of IC50 for HCP to IC50 for human PTP1B (1 to 321 amino acid residues).
For series [11], the species on record is Homo sapiens. In words: Selectivity ratio of IC50 for PTPalpha to IC50 for human PTP1B (1 to 321 amino acid residues).
The species entered for series [12] is Homo sapiens. In words: Selectivity ratio of IC50 for LAR to IC50 for human PTP1B (1 to 321 amino acid residues).
The nature of series [13]: Cmax in C57 mouse at 50 mg/kg, po. The format is ADME, organism-based. Also noted: dose 50 mg/kg, route oral. The note with it: in vivo.
For series [14], the species on record is Homo sapiens. The series is described as follows: Selectivity ratio of IC50 for TCPTP to IC50 for human PTP1B (1 to 321 amino acid residues).
Series [15] is filed under the species Homo sapiens. In words: Selectivity ratio of IC50 for PTPgamma to IC50 for human PTP1B (1 to 321 amino acid residues).
A short description of series [16]: Volume of distribution in C57 mouse at 5 mg/kg, iv. The format is ADME, organism-based. More on the design: dose 5 mg/kg, route intravenous. The note with it: in vivo.
A short description of series [17]: Oral bioavailability in C57 mouse at 50 mg/kg. Format: ADME, organism-based. The note with it: in vivo.
For series [18], the species on record is Homo sapiens. In words: Selectivity ratio of IC50 for CD45 to IC50 for human PTP1B (1 to 321 amino acid residues).
Series [19] in a line: Half life in C57 mouse at 50 mg/kg, po. The format is ADME, organism-based. More on the design: dose 50 mg/kg, route oral. The note with it: in vivo.
A short description of series [20]: AUC in C57 mouse at 10 mg/kg, iv. The format is ADME, organism-based. More on the design: dose 10 mg/kg, route intravenous. The note with it: plasma.
Series [21] can be described thus: Volume of distribution in C57 mouse at 10 mg/kg, iv. Format: ADME, organism-based. Also noted: dose 10 mg/kg, route intravenous. The note with it: in vivo.
Series [22] is described as follows: Clearance in C57 mouse at 10 mg/kg, iv. The format is ADME, organism-based. More on the design: dose 10 mg/kg, route intravenous. The note with it: in vivo.

Regarding `CNc1nc(N)nc2nc(-c3c(N4CCOCC4)cccc3C(F)(F)F)ccc12`, the IC50 in series [1] turned out to be 1150 nM.
On the same count and under the same terms, to `CNc1nc(N)nc2nc(-c3ccccc3Br)ccc12` belongs 530 nM; to `CNc1nc(N)nc2nc(-c3c(OC)cccc3C(F)(F)F)ccc12`, 560 nM; to `CNc1nc(N)nc2nc(-c3cc(Cl)ccc3Cl)ccc12`, 960 nM.
The same measure, in the same setting: for `CNc1nc(N)nc2nc(-c3ccccc3Cl)ccc12` the value was 1160 nM; for `CNc1nc(N)nc2nc(-c3ccccc3OC)ccc12`, 2790 nM.
On the same count and under the same terms, to `CNc1nc(N)nc2nc(-c3ccc(Cl)cc3Cl)ccc12` belongs 610 nM.
Molecule `CNc1nc(N)nc2nc(-c3ccccc3C(=O)O)ccc12` showed an IC50 in series [1] of 2390 nM.
The molecule `CCNc1nc(N)nc2nc(-c3ccccc3C(F)(F)F)ccc12` returned an IC50 in [1] of 1340 nM.
Same read-out and setting: for `CNc1nc(N)nc2nc(-c3ccccc3C(F)(F)F)c(C)cc12` the value was 500 nM.
Take `CNc1nc(N)nc2nc(-c3ccccc3C(F)(F)F)ccc12`: in series [2], the clearance was determined as 61 mL/min/kg. The AUC was 8990 ng·h/mL in [3] and 1370 ng·h/mL in [5]. Besides, the Ratio IC50 in the series listed under Homo sapiens [4], in the series listed under Homo sapiens [6], in the series listed under Homo sapiens [8], in the series filed under Homo sapiens [9], in the series listed under Homo sapiens [10] and in the series listed under Homo sapiens [11] was over 100 throughout. Also, the Ratio IC50 in the series listed under Homo sapiens [12] was over 100; in the series listed under Homo sapiens [14], 2; in the series listed under Homo sapiens [15], over 100; in the series filed under Homo sapiens [18], over 100. In series [7], the inhibition entry is “Active”. For the same molecule, the IC50 in series [1] amounted to 480 nM. The same molecule gave a Cmax in [13] of 3530 ng/mL. Also, the Vd in series [16] was 1.8 L/kg. The molecule further came in with a bioavailability in series [17] of 66%. Besides, the half-life in series [19] is 7.2 h.
In series [1], `CNc1nc(N)nc2nc(-c3cccc(Cl)c3Cl)ccc12` had an IC50 of 1180 nM.
Turning to `CNc1nc(N)nc2nc(-c3c(Oc4ccccc4)cccc3C(F)(F)F)ccc12`, the AUC came out at 11000 ng·h/mL in [3] and 6970 ng·h/mL in [20]. The Ratio IC50 in the series listed under Homo sapiens [4], in the series listed under Homo sapiens [6], in the series filed under Homo sapiens [8], in the series filed under Homo sapiens [9], in the series filed under Homo sapiens [10] and in the series filed under Homo sapiens [11] was over 100 throughout. In addition, the Ratio IC50 in the series listed under Homo sapiens [12] is over 100; in the series listed under Homo sapiens [14], 2; in the series filed under Homo sapiens [15], over 100; in the series filed under Homo sapiens [18], over 100. In [1], this molecule came in with an IC50 of 200 nM. For the same molecule, the Vd in series [21] stood at 0.9 L/kg. Besides, the Cmax in [13] turned out to be 2200 ng/mL. In series [22], this molecule showed a clearance of 24 mL/min/kg. This molecule also returned a bioavailability in [17] of 32%. Besides, the half-life in series [19] is 1.3 h.
In series [1], `CNc1nc(N)nc2nc(-c3c(N4CCCCC4)cccc3C(F)(F)F)ccc12` displayed a half-inhibitory concentration (IC50) of 1350 nM. This lies in the single-digit micromolar range.
Same read-out and setting: to `CNc1nc(N)nc2nc(-c3c(F)cccc3C(F)(F)F)ccc12` belongs 260 nM; to `CNc1nc(N)nc2nc(-c3c(F)cccc3N3CCCC3)ccc12`, 620 nM.
Same read-out and setting: to `CNc1nc(N)nc2nc(-c3c(N4CCCC4)cccc3C(F)(F)F)ccc12` belongs 430 nM; to `Nc1nc(NCCO)c2ccc(-c3ccccc3C(F)(F)F)nc2n1`, 1850 nM.
`CNc1nc(N)nc2nc(-c3ccccc3C(F)(F)F)c(S(C)(=O)=O)cc12` registered an IC50 in series [1] of 1000 nM.
In turn, `CNc1nc(N)nc2nc(-c3ccccc3[N+](=O)[O-])ccc12` gave an IC50 in series [1] of 1370 nM.
Still for that read-out and setting: to `CNc1nc(N)nc2nc(-c3c(SC)cccc3C(F)(F)F)ccc12` belongs 350 nM; to `CCCc1cc2c(NC)nc(N)nc2nc1-c1ccccc1C(F)(F)F`, 270 nM; to `CCCNc1nc(N)nc2nc(-c3ccccc3C(F)(F)F)ccc12`, 2430 nM.
The same measure, in the same setting: for `CNc1nc(N)nc2nc(-c3c(Cl)cccc3N3CCCC3)ccc12` the value was 820 nM.
